According to BindingDB's records for doi:10.3109/14756360902888200 (Chung Shan Medical University Hospital, 2010):
pKi: −log10 of the molar value.

The compounds below were run against Carboxylic ester hydrolase (Equus caballus, UniProt Q9N1N9) (assay: BChE Inhibition Assay). Details: pH 7; 25 °C.
Method: BChE inhibitions by the carbamate inhibitors were assayed by the Ellman method [Ellman et al., Biochem. Pharm., 7:88-95]. BChE-catalyzed hydrolysis of BTCh in the presence of the carbamate inhibitors and DTNB was followed continuously at 410 nm on a UV-visible spectrometer. The temperature was maintained at 25.0°C by a refrigerated circulating water bath. All inhibition reactions were performed in sodium phosphate buffer (1 mL, 0.1 M, pH 7.0) containing NaCl (0.1 M), acetonitrile (2% by volume), triton X-100 (0.5% by weight), substrate (ATCh for AChE or BTCh for BChE) (50 μM), DTNB, and varying concentrations of inhibitor. Requisite volumes of stock solution of substrateand inhibitors in acetonitrile were injected into the reaction buffer via a pipet. BChE was dissolved in sodium phosphate buffer (0.1 M, pH 7.0).

Carboxylic ester hydrolase, sequence (Q9N1N9 whole entry): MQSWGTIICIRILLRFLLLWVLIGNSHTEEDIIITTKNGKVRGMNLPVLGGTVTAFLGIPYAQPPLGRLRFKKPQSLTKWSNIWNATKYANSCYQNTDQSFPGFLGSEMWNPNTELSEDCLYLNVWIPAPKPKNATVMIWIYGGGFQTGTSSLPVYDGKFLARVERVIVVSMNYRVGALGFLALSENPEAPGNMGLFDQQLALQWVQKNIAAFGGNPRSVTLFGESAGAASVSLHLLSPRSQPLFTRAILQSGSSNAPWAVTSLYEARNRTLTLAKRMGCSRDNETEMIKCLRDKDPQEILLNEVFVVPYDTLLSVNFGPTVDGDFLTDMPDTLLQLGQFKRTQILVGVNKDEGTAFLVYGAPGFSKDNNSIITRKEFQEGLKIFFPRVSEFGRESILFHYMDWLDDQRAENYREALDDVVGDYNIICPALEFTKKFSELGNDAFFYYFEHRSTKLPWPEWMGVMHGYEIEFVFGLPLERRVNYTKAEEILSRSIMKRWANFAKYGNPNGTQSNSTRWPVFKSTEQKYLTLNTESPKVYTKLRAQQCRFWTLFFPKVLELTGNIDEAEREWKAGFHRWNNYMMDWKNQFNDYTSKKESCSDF

Point of comparison: `CCCCNC(=O)OC1CC2CCC1C2` [(R)-(+)-exo-2-norbonyl-N-n-butylcarbamate], pKi 7.96. Against it:
- CCCCNC(=O)OC1CC2CCC1C2 [(S)-(-)-endo-2-norbornyl-N-n-butylcarbamate] — 0.74 log units higher, 8.70
- CCCCNC(=O)OC1CC2CCC1C2 [(S)-(-)-exo-2-norbonyl-N-n-butylcarbamate] — 0.66 log units lower, 7.30
